Measured values reported in patent US20240336602A1 (Katholieke Universiteit Leuven, priority 2020, published 2024).

biological target: T1, mouse TRPM3a2 (mTRPM3) ion channel (Mus musculus, UniProt J9SQF3); assay: TRPM3 ion channel driven Ca2+ uptake, Fluo-4 AM assay (PS-stimulated, overexpressing flip-in HEK293 cells); assay type: cell-based; details: PS (50 μM) stimulated Ca2+ influx, HEK293, cpds 200-299
T1 construct: expressed in transfected cells; host or cells: flip-in HEK293
Summary of the method: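 Flip-in HEK293 cells overexpressing mTRPM3α2, loaded with Fluo-4 AM, were added to wells with compound plus 50 μM pregnenolone sulfate in Ca2+-containing Krebs buffer and read immediately (ex 485/em 535 nm). Percent inhibition was scaled between PS-plus-vehicle and positive-control-inhibitor signals.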

T1 sequence (J9SQF3 1-1709 isoform J9SQF3-12): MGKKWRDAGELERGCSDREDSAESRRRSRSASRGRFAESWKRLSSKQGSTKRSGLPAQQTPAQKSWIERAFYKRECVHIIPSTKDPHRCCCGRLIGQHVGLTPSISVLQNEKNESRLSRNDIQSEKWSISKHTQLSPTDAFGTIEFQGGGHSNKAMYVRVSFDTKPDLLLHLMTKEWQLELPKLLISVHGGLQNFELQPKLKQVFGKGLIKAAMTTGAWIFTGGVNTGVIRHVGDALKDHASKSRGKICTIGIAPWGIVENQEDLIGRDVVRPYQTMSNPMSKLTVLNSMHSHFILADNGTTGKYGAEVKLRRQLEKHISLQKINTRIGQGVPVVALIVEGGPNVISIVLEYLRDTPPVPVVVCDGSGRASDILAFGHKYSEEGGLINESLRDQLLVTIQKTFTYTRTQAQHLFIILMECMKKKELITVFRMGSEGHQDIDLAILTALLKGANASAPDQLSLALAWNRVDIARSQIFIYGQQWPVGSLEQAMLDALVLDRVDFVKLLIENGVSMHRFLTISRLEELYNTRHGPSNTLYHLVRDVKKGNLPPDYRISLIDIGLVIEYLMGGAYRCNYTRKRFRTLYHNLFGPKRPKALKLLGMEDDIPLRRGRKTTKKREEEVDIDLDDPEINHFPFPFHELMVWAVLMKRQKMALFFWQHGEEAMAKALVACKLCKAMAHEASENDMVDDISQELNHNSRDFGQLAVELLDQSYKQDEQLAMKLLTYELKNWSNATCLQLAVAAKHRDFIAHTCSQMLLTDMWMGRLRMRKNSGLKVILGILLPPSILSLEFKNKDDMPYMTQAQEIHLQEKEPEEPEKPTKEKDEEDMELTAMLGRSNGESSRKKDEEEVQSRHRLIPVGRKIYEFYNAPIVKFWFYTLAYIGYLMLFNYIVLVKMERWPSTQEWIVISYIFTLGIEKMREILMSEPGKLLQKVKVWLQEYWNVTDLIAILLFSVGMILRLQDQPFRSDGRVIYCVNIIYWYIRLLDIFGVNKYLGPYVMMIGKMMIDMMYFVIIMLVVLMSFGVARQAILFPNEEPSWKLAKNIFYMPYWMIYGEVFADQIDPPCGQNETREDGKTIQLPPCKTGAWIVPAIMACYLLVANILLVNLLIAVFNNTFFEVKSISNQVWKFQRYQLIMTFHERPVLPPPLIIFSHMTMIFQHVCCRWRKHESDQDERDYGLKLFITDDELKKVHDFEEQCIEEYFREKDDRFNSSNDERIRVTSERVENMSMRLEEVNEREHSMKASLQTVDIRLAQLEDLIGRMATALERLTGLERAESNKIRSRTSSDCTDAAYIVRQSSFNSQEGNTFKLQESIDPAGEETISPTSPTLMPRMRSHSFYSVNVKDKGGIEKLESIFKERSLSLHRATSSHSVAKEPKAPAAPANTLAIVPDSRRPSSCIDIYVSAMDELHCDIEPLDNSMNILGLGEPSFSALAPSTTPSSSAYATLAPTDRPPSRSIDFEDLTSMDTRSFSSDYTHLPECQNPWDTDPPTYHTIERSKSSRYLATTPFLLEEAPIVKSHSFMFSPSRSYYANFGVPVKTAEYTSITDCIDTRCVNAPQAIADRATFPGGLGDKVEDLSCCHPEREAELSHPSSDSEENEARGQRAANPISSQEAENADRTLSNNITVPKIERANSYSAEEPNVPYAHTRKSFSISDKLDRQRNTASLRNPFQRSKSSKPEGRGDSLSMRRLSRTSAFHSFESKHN

Compound | IC50
Cc1ncc(COc2ccc3oc(C)c(C(=O)N[C@@H](CO)C(=O)N4CCC(F)(F)C4)c3c2)s1 [cpd 277, (S)-N-(1-(3,3-difluoropyrrolidin-1-yl)-3-hydroxy-1-oxopropan-2-yl)-2-methyl-5-((2-methylthiazol-5-yl)methoxy)benzofuran-3-carboxamide] | 1000 to 20000 nM

same assay, conditions: PS (50 μM) stimulated Ca2+ influx, HEK293, cpds 300-399

Compound | IC50
Cc1ncc(COc2ccc3oc(C)c(C(=O)N[C@@H](CO)C(=O)N4CCCC4)c3c2)s1 [cpd 307, (S)-N-(3-hydroxy-1-oxo-1-(pyrrolidin-1-yl)propan-2-yl)-2-methyl-5-((2-methylthiazol-5-yl)methoxy)benzofuran-3-carboxamide] | 1000 to 20000 nM
Cc1ncsc1COc1ccc2oc(C(F)F)c(C(=O)NC3(CO)CC3)c2c1 [cpd 308, 2-(difluoromethyl)-N-(1-(hydroxymethyl)cyclopropyl)-5-((4-methylthiazol-5-yl)methoxy)benzofuran-3-carboxamide] | 1000 to 20000 nM
Cc1ncsc1COc1ccc2oc(C(F)F)c(C(=O)NC3(CO)COC3)c2c1 [cpd 309, 2-(difluoromethyl)-N-(3-(hydroxymethyl)oxetan-3-yl)-5-((4-methylthiazol-5-yl)methoxy)benzofuran-3-carboxamide] | 1000 to 20000 nM

same assay, conditions: PS (50 μM) stimulated, cpd 001-199

Compound | IC50
Cc1oc2ccc(OCc3cccc(C(F)(F)F)n3)cc2c1C(=O)NC1CCNC1=O (stereo not drawn) [cpd 065, 2-methyl-N-(2-oxopyrrolidin-3-yl)-5-((6-(trifluoromethyl)pyridin-2-yl)methoxy)benzofuran-3-carboxamide] | 1000 to 20000 nM
Cc1oc2ccc(OCc3ccc(C(F)(F)F)nc3)cc2c1C(=O)NC1CCNC1=O (stereo not drawn) [cpd 066, 2-methyl-N-(2-oxopyrrolidin-3-yl)-5-((6-(trifluoromethyl)pyridin-3-yl)methoxy)benzofuran-3-carboxamide] | 1000 to 20000 nM
Cc1oc2ccc(OCc3ccc(C(F)(F)F)o3)cc2c1C(=O)NC1CCN(C)CC1 [cpd 069, 2-methyl-N-(1-methylpiperidin-4-yl)-5-((5-(trifluoromethyl)furan-2-yl)methoxy)benzofuran-3-carboxamide] | 1000 to 20000 nM
Cc1cncc(COc2ccc3oc(C)c(C(=O)N[C@H]4CCN(C(=O)OC(C)(C)C)C4)c3c2)c1 [cpd 073, tert-butyl (S)-3-(2-methyl-5-((5-methylpyridin-3-yl)methoxy)benzofuran-3-carboxamido)pyrrolidine-1-carboxylate] | 1000 to 20000 nM
Cc1oc2ccc(OCc3cccnc3C(F)(F)F)cc2c1C(=O)NC1CCNCC1(F)F (stereo not drawn) [cpd 074, N-(3,3-difluoropiperidin-4-yl)-2-methyl-5-((2-(trifluoromethyl)pyridin-3-yl)methoxy)benzofuran-3-carboxamide] | ≤ 1000 nM
Cc1oc2ccc(OCc3ncccc3C(F)(F)F)cc2c1C(=O)NC1CCNCC1(F)F (stereo not drawn) [cpd 076, N-(3,3-difluoropiperidin-4-yl)-2-methyl-5-((3-(trifluoromethyl)pyridin-2-yl)methoxy)benzofuran-3-carboxamide] | 1000 to 20000 nM
Cc1oc2ccc(OCc3cccc(N(C)C)n3)cc2c1C(=O)NC1CCN(C(=O)OC(C)(C)C)CC1(F)F (stereo not drawn) [cpd 078, tert-butyl 4-(5-((6-(dimethylamino)pyridin-2-yl)methoxy)-2-methylbenzofuran-3-carboxamido)-3,3-difluoropiperidine-1-carboxylate] | 1000 to 20000 nM
CCOC(=O)c1c(C)oc2ccc(OCC3CCN(C(=O)OC(C)(C)C)C3)cc12 (stereo not drawn) [cpd 079, tert-butyl 3-(((3-(ethoxycarbonyl)-2-methylbenzofuran-5-yl)oxy)methyl)pyrrolidine-1-carboxylate] | 1000 to 20000 nM
Cc1oc2ccc(OCc3nccs3)cc2c1C(=O)NC1CCN(C(=O)OC(C)(C)C)CC1(F)F (stereo not drawn) [cpd 087, tert-butyl 3,3-difluoro-4-(2-methyl-5-(thiazol-2-ylmethoxy)benzofuran-3-carboxamido)piperidine-1-carboxylate] | 1000 to 20000 nM
Cc1cccnc1COc1ccc2oc(C)c(C(=O)NC3CCN(C(=O)OC(C)(C)C)CC3(F)F)c2c1 (stereo not drawn) [cpd 088, tert-butyl 3,3-difluoro-4-(2-methyl-5-((3-methylpyridin-2-yl)methoxy)benzofuran-3-carbox-amido)piperidine-1-carboxylate] | 1000 to 20000 nM
COc1ncccc1COc1ccc2oc(C)c(C(=O)NC3CCN(C(=O)OC(C)(C)C)CC3(F)F)c2c1 (stereo not drawn) [cpd 089, tert-butyl 3,3-difluoro-4-(5-((2-methoxypyridin-3-yl)methoxy)-2-methylbenzofuran-3-carbox-amido)piperidine-1-carboxylate] | 1000 to 20000 nM
Cc1ncsc1COc1ccc2oc(C)c(C(=O)NC3CCN(C(=O)OC(C)(C)C)CC3(F)F)c2c1 (stereo not drawn) [cpd 090, tert-butyl 3,3-difluoro-4-(2-methyl-5-((4-methylthiazol-5-yl)methoxy)benzofuran-3-carbox-amido)piperidine-1-carboxylate] | 1000 to 20000 nM
COc1cccc(COc2ccc3oc(C)c(C(=O)NC4CCN(C(=O)OC(C)(C)C)CC4(F)F)c3c2)n1 (stereo not drawn) [cpd 091, tert-butyl 3,3-difluoro-4-(5-((6-methoxypyridin-2-yl)methoxy)-2-methylbenzofuran-3-carbox-amido)piperidine-1-carboxylate] | 1000 to 20000 nM
Cc1oc2ccc(OCc3cccnc3Cl)cc2c1C(=O)NC1CCN(C(=O)OC(C)(C)C)CC1(F)F (stereo not drawn) [cpd 092, tert-butyl 4-(5-((2-chloropyridin-3-yl)methoxy)-2-methylbenzofuran-3-carboxamido)-3,3-difluoro-piperidine-1-carboxylate] | 1000 to 20000 nM
Cc1oc2ccc(OCc3cnccc3Cl)cc2c1C(=O)NC1CCN(C(=O)OC(C)(C)C)CC1(F)F (stereo not drawn) [cpd 093, tert-butyl 4-(5-((4-chloropyridin-3-yl)methoxy)-2-methylbenzofuran-3-carboxamido)-3,3-difluoro-piperidine-1-carboxylate] | 1000 to 20000 nM
Cc1oc2ccc(OCc3ccc4nccn4c3)cc2c1C(=O)NC1CCN(C(=O)OC(C)(C)C)CC1(F)F (stereo not drawn) [cpd 094, tert-butyl 3,3-difluoro-4-(5-(imidazo[1,2-a]pyridin-6-ylmethoxy)-2-methylbenzofuran-3-carbox-amido)piperidine-1-carboxylate] | 1000 to 20000 nM
Cc1oc2ccc(OCc3cncc(C(F)(F)F)c3)cc2c1C(=O)NC1CCN(C(=O)OC(C)(C)C)CC1(F)F (stereo not drawn) [cpd 095, tert-butyl 3,3-difluoro-4-(2-methyl-5-((5-(trifluoromethyl)pyridin-3-yl)methoxy)benzofuran-3-carboxamido)piperidine-1-carboxylate] | 1000 to 20000 nM
Cc1oc2ccc(OCc3ncccc3C(F)(F)F)cc2c1C(=O)NC1CCN(C(=O)OC(C)(C)C)CC1(F)F (stereo not drawn) [cpd 096, tert-butyl 3,3-difluoro-4-(2-methyl-5-((3-(trifluoromethyl)pyridin-2-yl)methoxy)benzofuran-3-carboxamido)piperidine-1-carboxylate] | 1000 to 20000 nM
Cc1oc2ccc(OCc3ccccn3)cc2c1C(=O)NC1CCN(C(=O)OC(C)(C)C)CC1(F)F (stereo not drawn) [cpd 097, tert-butyl 3,3-difluoro-4-(2-methyl-5-(pyridin-2-ylmethoxy)benzofuran-3-carboxamido)piperidine-1-carboxylate] | 1000 to 20000 nM
Cc1oc2ccc(OCc3cccnc3C(F)(F)F)cc2c1C(=O)NC1CCN(C(=O)OC(C)(C)C)CC1(F)F (stereo not drawn) [cpd 098, tert-butyl 3,3-difluoro-4-(2-methyl-5-((2-(trifluoromethyl)pyridin-3-yl)methoxy)benzofuran-3-carboxamido)piperidine-1-carboxylate] | 1000 to 20000 nM
Cc1ccncc1COc1ccc2oc(C)c(C(=O)O)c2c1 [cpd 099, 2-methyl-5-((4-methylpyridin-3-yl)methoxy)benzofuran-3-carboxylic acid] | 1000 to 20000 nM
COc1ncccc1COc1ccc2oc(C)c(C(=O)O)c2c1 [cpd 100, 5-((2-methoxypyridin-3-yl)methoxy)-2-methylbenzofuran-3-carboxylic acid] | 1000 to 20000 nM
Cc1ncsc1COc1ccc2oc(C)c(C(=O)O)c2c1 [cpd 102, 2-methyl-5-((4-methylthiazol-5-yl)methoxy)benzofuran-3-carboxylic acid] | 1000 to 20000 nM
Cc1oc2ccc(OCc3cccnc3C(F)(F)F)cc2c1C(=O)n1ccc(N)n1 [cpd 178, (3-amino-1H-pyrazol-1-yl)(2-methyl-5-((2-(trifluoromethyl)pyridin-3-yl)methoxy)benzofuran-3-yl)methanone] | 1000 to 20000 nM
Cc1oc2ccc(OCc3cccnc3C(F)(F)F)cc2c1C(=O)n1cc(N)cn1 [cpd 181, (4-amino-1H-pyrazol-1-yl)(2-methyl-5-((2-(trifluoromethyl)pyridin-3-yl)methoxy)benzofuran-3-yl)methanone] | 1000 to 20000 nM
Cc1ncsc1COc1cc(Cl)c2oc(C)c(C(=O)NC3(CO)CCOCC3)c2c1 [cpd 187, 7-chloro-N-(4-(hydroxymethyl)tetrahydro-2H-pyran-4-yl)-2-methyl-5-((4-methylthiazol-5-yl)-methoxy)benzofuran-3-carboxamide] | 1000 to 20000 nM
Cc1oc2ccc(OCc3cccnc3C(F)(F)F)cc2c1C(=O)NCC1(N)COC1 [cpd 189, N-((3-aminooxetan-3-yl)methyl)-2-methyl-5-((2-(trifluoromethyl)pyridin-3-yl)methoxy)-benzofuran-3-carboxamide] | 1000 to 20000 nM
Cc1ncsc1COc1ccc2oc(C)c(C(=O)NC3CC4(CNC4)C3)c2c1 [cpd 190, 2-methyl-5-((4-methylthiazol-5-yl)methoxy)-N-(2-azaspiro[3.3]heptan-6-yl)benzofuran-3-carboxamide] | 1000 to 20000 nM
Cc1ncsc1COc1ccc2oc(C(F)F)c(C(=O)NC3(CO)CCOCC3)c2c1 [cpd 197, 2-(difluoromethyl)-N-(4-(hydroxymethyl)tetrahydro-2H-pyran-4-yl)-5-((4-methylthiazol-5-yl)-methoxy)benzofuran-3-carboxamide] | 1000 to 20000 nM
